Experimental findings from patent US20020123525A1, “Cardioprotective composition and uses thereof” (GESTILAB INC., priority 1999, published 2002) are described below.

In test [1] the test system is isolated rat heart. The test can be described thus: Cardioprotection in electrolysis-induced ROS on isolated rat heart. Particulars: Heart (ex vivo). The method, then: (§1) All experiments were conformed to rules of the Guide for the care and use of laboratory animals published by the U.S. National Institutes of Health (NIH publication No 85-23, revised 1985). Adult male Wistar rats (225-250 g) were anaesthetized with sodium pentobarbitone (0.1 ml/100 g body weight) and then heparinised (500 Ul intra-peritoneally). Hearts were rapidly excised, placed in ice-cold oxygenated KH buffer solution, cleaned and then mounted on a modified Langendorff heart perfusion apparatus.
Hearts were cannulated via the aorta and retrogradely perfused at a constant perfusion pressure (90 mm Hg at 37° C.) with modified KH buffer. This solution was continuously gassed with a mixture of 95% O2 and 5% CO2 to maintain a pH of 7.4 at 37° C. […]
A saline-filled latex balloon was inserted into the left ventricle by way of the AV valve and connected via a polyethylene cannula to a pressure transducer for determination of Left Ventricular Pressure (LVP) and Left Ventricular End Diastolic Pressure (LVEDP). […] The LVP, LVEDP, and ECG were recorded on a Nihon-Kohden polygraph (RM 600); heart rate (HR) was calculated from the electrogram. Coronary flow (CF) was measured by time collection of coronary effluent at various times during the experiment. […]
The cardiodynamic variables were monitored during all the experimental period.

The test system of test [2] is isolated rat heart. The test can be described thus: Cardioprotection and reperfusion-induced arrhythmias in regional ischemia-reperfusion of isolated rat heart. The note with it: Heart (ex vivo). The procedure:
as §1
Hearts were cannulated via the aorta and retrogradely perfused at a constant perfusion pressure (90 mm Hg at 37° C.) with modified KH buffer. […]
A saline-filled latex balloon was inserted into the left ventricle by way of the AV valve and connected via a polyethylene cannula to a pressure transducer for determination of Left Ventricular Pressure (LVP) and Left Ventricular End Diastolic Pressure (LVEDP). […] The LVP, LVEDP, and ECG were recorded on a Nihon-Kohden polygraph (RM 600); heart rate (HR) was calculated from the electrogram. Coronary flow (CF) was measured by time collection of coronary effluent at various times during the experiment.
Hearts were perfused for a 20 min control period with KH buffer, for stabilization. […] Left ventricular pressure and epicardial ECG were continuously monitored before and during ischemia and reperfusion. […]

Test [3] in a line: In vitro antioxidant capacity, inhibition of DPD oxidation by electrolyzed KH buffer. An excerpt:
Oxidation rate of N,N-diethyl-p-phenylenediamine (DPD) by a prooxidant system was used as a general reporter of the amount of ROS generated by that system (Anonymous, 1985; Chahine et al., 1991). Antioxidant capacity of preparations of TRIAD (or of its components) was defined as the extent (%) to which they inhibited the oxidation of DPD by prooxidants. To estimate the antioxidant capacity of TRIAD preparations in the conditions encountered during perfusion of hearts with electrolyzed buffer, 0.6 ml of modified KH not containing (control situation corresponding to 0% inhibition) or containing various concentrations of TRIAD, TRIAD (S2) or their components was subjected to 1-min electrolysis at 10 mA and then mixed with 0.3 ml of the non-electrolyzed counterpart of the solution to which 95 mM DPD was added. Determination of the amount of oxidized DPD was immediately done by reading absorbencies a 515 nm.

In the case of `CC(=O)C(=O)[O-].[Na+]` [Pyruvate, sodium pyruvate], the “Effect of fatty acids and vitamin E on action of pyruvate, the component that mostly contributed to antioxidant action” value is reported as “(Pyruvate, ↑)” in the test on isolated rat heart [1]; “(Pyruvate, ↓)” with isolated rat heart [2]; “(Pyruvate, ↑)” in test [3] (DPD (in vitro), electrolysis). The “Antioxidant capacity (ROS scavenging) in vitro, comparison” value in test [3] (electrolysis pro-oxidant system, DPD method, same concentrations) is given as “only a slightly lower ROS scavenging capacity”.
